Measurements as given in EP0753258B1 (priority 1995, dated 1997).
“And” between values parts separate entries of the source, which are not always exact repeats. Identical values can stand only once. Like-named read-outs stand apart in the source and are kept apart here.

How the values were obtained:
Plasmopara viticola [1] = assay: Field trial, grape downy mildew fruit rot, Michigan, U.S.A. (natural infection); type: in vivo; conditions: 12 days after last treatment, 100 g/ha of each compound, grapes; for % Control, Incidence (Observed): downy mildew fruit rot incidence; for % Control, Severity (Observed): downy mildew fruit rot severity (diseased fruit surface area)
Method: (§1) The results provided by the mixtures were compared with the predicted results that were calculated using the formula set forth by S.R. Colby in Weeds 1967, 15, 20-22 ("Colby's Formula") from the results obtained using each of the compounds individually. The predicted results are also provided in the following Examples.
The trial was conducted in the State of Michigan, U.S.A. Plots consisted of 4 grape vines, cultivar Chancellor. Four such plots arranged in randomized blocks were used for each treatment
Fungicide treatments were applied at day 0, and at 13, 28, 43, 55, 71, and 84 days thereafter. N-[3(1'-chloro-3'-methyl-2'-oxopentan]-3,5-dichloro-4-methylbenzamide was applied as a flowable formulation (23% active ingredient) at 100 grams of active ingredient per hectare, and 2-cyano-N-((ethylamino)carbonyl)-2-(methoxyimino)acetamide was applied as a wettable powder formulation (CURZATE™, 50WP, DuPont, Wilmington, DE) at 100 grams of active ingredient per hectare. The two compounds were also applied as an aqueous tank mix of the two compounds at a dosage of 100 grams of active ingredient per hectare of each compound.
Evaluation of disease in response to natural infection was made 12 days after the last treatment The incidence and severity of downy mildew fruit rot was determined for twenty clusters of fruit selected randomly from the middle two vines of each plot Incidence refers to whether or not the cluster was diseased, and severity is the percentage of diseased fruit surface area. The compounds applied (Compound), and the incidence and severity results, expressed as percent disease control in comparison with untreated plots (% Control, Incidence (Observed) and % Control, Severity (Observed), respectively) are set forth below in TABLE 4 for treatment with N-[3'(1'-chloro-3'-methyl-2'-oxopentan]-3,5-dichloro-4-methylbenzamide, treatment with 2-cyano-N-((ethylamino)carbonyl)-2-(methoxyimino)acetamide and treatment with a mixture of the two compounds. The results obtained using the mixture of the two compounds were compared with predicted results that were calculated using Colby's formula from the results obtained using each of the compounds individually. The predicted results for incidence and severity are set forth below in TABLE 4 as "% Control, Incidence (Predicted)" and "% Control, Severity (Predicted)", respectively.

Plasmopara viticola [2] = conditions: in vivo
Plasmopara viticola [3] = assay: Field trial, grape vines, Campinas, Brazil (heavy natural infection); type: in vivo; conditions: grapes
Method: as §1
A field trial was conducted in Campinas, Brazil. Plots each consisted of 4 grape vines, cultivar Maria.
Fungicide treatments were applied at 7-day intervals with a total of 5 applications. N-[3'(1'-chloro-3'-methyl-2'-oxopentan]-3,5-dichloro-4-methylbenzamide was applied as a flowable formulation (23% active ingredient) , 2-cyano-N-((ethylamino)carbonyl)-2-(methoxyimino)acetamide as a wettable powder formulation (CURZATE™, 50WP, DuPont, Wilmington, DE). The two compounds were each applied individually in the manner disclosed above and in combination as an aqueous tank mix of the two compounds.
Evaluation of disease in response to a heavy natural infection was made 6 days after the third application, and 7 days after the fifth application. The Compounds applied and dosage rates, expressed as grams of active ingredient per hectare (Compound Dosage Rate (g/ha)) and the results, expressed as percent disease control in comparison with untreated plots (% Control(Observed)) are set forth below in TABLE 6 for treatment with N-[3'(1'-chloro-3'-methyl-2'-oxopentan]-3,5-dichloro4-methylbenzamide, treatment with 2-cyano-N-((ethylamino)carbonyl)-2-(methoxyimino)acetamide and treatment with mixtures of the two compounds. The results obtained using the mixtures of the two compounds were compared with those predicted by Colby's formula from the results provided by each of the two compounds used individually. The predicted results are set forth below in TABLE 6 as "% Control (Predicted)".

Phytophthora infestans [4] = type: in vivo; conditions: 6 days after inoculation, tomatoes
Phytophthora infestans [5] = conditions: in vivo
Phytophthora infestans [6] = conditions: in vivo; remark: listed apart in the source

Molecule	% Control, Incidence (Observed) (Plasmopara viticola [1]) [%]	% Control, Severity (Observed) (Plasmopara viticola [1]) [%]	% Control (Observed) (Plasmopara viticola [2]) [%]	% Control (Observed) (Phytophthora infestans [4]; single compound 0.4 ppm) [%]	% Control (Observed) (Phytophthora infestans [4]; single compound 0.8 ppm) [%]	% Control by Evaluation Interval 5 weeks (Phytophthora infestans [5])	% Control by Evaluation Interval 6 weeks (Phytophthora infestans [5])	% Control by Evaluation Interval 7 weeks (Phytophthora infestans [5])	% Control (Observed) (Phytophthora infestans [6]) [%]	further results
CCC(C)(NC(=O)c1cc(Cl)c(C)c(Cl)c1)C(=O)CCl (stereo not drawn) [Compound A]	43.7	75.3	87	0	20	99% and 98%	97% and 81%	88% and 56%	23	% Control (Observed) (Plasmopara viticola [3]; Seven days after the fifth treatment, A 100 g/ha alone): 21.4%; % Control (Observed) (Plasmopara viticola [3]; Seven days after the fifth treatment, A 200 g/ha alone): 26.1%; % Control (Observed) (Plasmopara viticola [3]; Six days after the third treatment, A 100 g/ha alone): 24.3%; % Control (Observed) (Plasmopara viticola [3]; Six days after the third treatment, A 200 g/ha alone): 21.8%; % Control by Evaluation Interval 9 weeks (Phytophthora infestans [5]): 16% and 11%; % Control by Evaluation Interval 10 weeks (Phytophthora infestans [5]): 11% and 6%; % Control by Evaluation Interval 11 weeks (Phytophthora infestans [5]): 1% and 0%
CCNC(=O)NC(=O)C(C#N)=NOC [Compound C, 2-cyano-N-((ethylamino)carbonyl)-2-(methoxyimino)acetamide]	2.5	34.6								% Control (Observed) (Plasmopara viticola [3]; Seven days after the fifth treatment, C 25 g/ha alone): 66.7%; % Control (Observed) (Plasmopara viticola [3]; Seven days after the fifth treatment, C 50 g/ha alone): 59.6%; % Control (Observed) (Plasmopara viticola [3]; Seven days after the fifth treatment, C 100 g/ha alone): 64.3%; % Control (Observed) (Plasmopara viticola [3]; Six days after the third treatment, C 25 g/ha alone): 71.3%; % Control (Observed) (Plasmopara viticola [3]; Six days after the third treatment, C 50 g/ha alone): 64.8%; % Control (Observed) (Plasmopara viticola [3]; Six days after the third treatment, C 100 g/ha alone): 74.1%
COc1ccc(C(=CC(=O)N2CCOCC2)c2ccc(Cl)cc2)cc1OC [Compound D, (E,Z) 4-(3-(4-chlorophenyl)-3-(3,4-dimethoxyphenyl)acryloyl) morpholine]				0	10					% Control (Observed) (Phytophthora infestans [4]; single compound 1.5 ppm): 35%
manganese-zinc ethylenebis(dithiocarbamate) [reference compound]			61			99% and 98%	98% and 88%	95% and 80%	69	% Control by Evaluation Interval 8 weeks (Phytophthora infestans [5]): 87% and 62%
